Reference: patent US20190151266A1, “PHARMACEUTICAL COMPOSITION FOR TREATING OR PREVENTING BURN INJURIES” (priority 2016, published 2019)

Legend:
[1] = system: TRPV ion channels; assay: TRPV ion channel activity: 2-APB-induced intracellular calcium change in nociceptive sensory cells (Fluo-4-AM); assay type: cell-based, white rats
Protocol: After fl 1 nociceptive sensory cell lines in white rats incubated with the compound of Formula 1 for 24 hours were pretreated, TRPV ion channel activities were measured. The fl 1 cell lines were treated with 2-APB (2-aminoethoxydiphenyl borate) as a pre-activator for TRPV ion channels, and intracellular calcium changes, which are triggered in response to the 2-APB treatment, were evaluated using a Fluo-4-AM fluorescent dye on a real time basis.

[2] = system: f11 neuron cell lines; assay: Inhibitory efficacy of fibroblast cell proliferation; assay type: cell-based; settings: f11 neuron cell lines treated for 72 hours; compared to control groups; FIG. 10
Protocol: After f11 neuron cell lines were treated with the compound of Formula 1 for 72 hours, the extents of cell differentiation were first compared/evaluated (see FIG. 10). […] Since fibroblast cell proliferation accompanies excessive collagen synthesis to make up for the dermis damaged by skin injury, scars can be left even after the damage recovery. Therefore, scar prevent or treating efficacy can be exerted by inhibiting the fibroblast proliferation.

Structure (SMILES)	increase in the intracellular calcium level induced by 2-APB ([1]; fl 1 cell lines pre-treated with the compound for 24 hours, FIG. 9)	fibroblast cell proliferation and differentiation inhibitory efficacy [2]	intracellular calcium level after treatment with TRPV pre-activator ([1]; fl 1 cell lines, transient within 20 seconds, reverted to base level in about 5 minutes)
CC(C)c1ccc2c(c1)C=C[C@H]1[C@](C)(C(=O)O)CCC[C@]21C [Formula 1, abieta-6,8,11,13-tetraaen-18-oic acid]	strongly inhibited	improved fibroblast cell proliferation and differentiation inhibitory efficacy	
NCCOB(c1ccccc1)c1ccccc1 [Formula 2-APB, 2-aminoethoxydiphenyl borate, reference compound]			sharp increase in the intracellular calcium level
